According to the supplement of paper PMC11061612:

Columns and labels:
Experiment in all cases: combination Emax (second highest fraction inhibited in the dose matrix, 72 h); higher = more inhibition; extreme values may be limits of the assay
[1] = tested on: MOG-G-CCM (Low Grade Glioma)
Procedure, shortened: (§1)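 Cell lines grown in DMEM/F12 or RPMI with 10% FBS were plated in 1536-well plates and held 24 hours at 37°C, 5% CO2 before 72 hours of exposure to two-drug dose matrices, with DMSO typically at 0.2%. CellTiter-Glo 2.0 luminescence gave viability, which was converted to inhibition. Vehicle wells were set to 0 and blank wells to 1. Combination Emax is the second-highest inhibition in the matrix, and Bliss excess is the observed combination effect minus the expected EA + EB − EA·EB, where EA and EB are the single-agent effects.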

[2] = tested on: KP-3 (Pancreatic Carcinoma)
Procedure, shortened: as §1

[3] = tested on: SNU-398 (Hepatocellular Carcinoma)
Procedure, shortened: as §1

[4] = tested on: KYSE-270 (Esophageal Squamous Cell Carcinoma)
Procedure, shortened: as §1

[5] = tested on: SK-GT-4 (Esophageal Adenocarcinoma)
Procedure, shortened: as §1

[6] = tested on: SUP-B15 (B-Lymphoblastic Leukemia)
Procedure, shortened: as §1

[7] = tested on: SU-DHL-5 (B-Cell Non-Hodgkin's Lymphoma)
Procedure, shortened: as §1

[8] = tested on: KMS-12-BM (Plasma Cell Myeloma)
Procedure, shortened: as §1

[9] = tested on: RPMI-8226 (Plasma Cell Myeloma)
Procedure, shortened: as §1

[10] = tested on: NCI-H3122 (Lung Adenocarcinoma)
Procedure, shortened: as §1

RD (Rhabdomyosarcoma) = tested on: RD (Rhabdomyosarcoma)
Procedure, shortened: as §1

[11] = tested on: NCI-H661 (Non-Small Cell Lung Carcinoma)
Procedure, shortened: as §1

[12] = tested on: KY821 (Acute Myeloid Leukemia)
Procedure, shortened: as §1

[13] = tested on: NCCIT (Other Solid Carcinomas)
Procedure, shortened: as §1

[14] = tested on: ESO51 (Esophageal Adenocarcinoma)
Procedure, shortened: as §1

[15] = tested on: DAN-G (Pancreatic Carcinoma)
Procedure, shortened: as §1

[16] = tested on: CW-2 (Colorectal Carcinoma)
Procedure, shortened: as §1

[17] = tested on: H9 (T-Cell Non-Hodgkin's Lymphoma)
Procedure, shortened: as §1

[18] = tested on: HCC1419 (Breast Carcinoma)
Procedure, shortened: as §1

[19] = tested on: KU812 (Chronic Myelogenous Leukemia)
Procedure, shortened: as §1

Row | SMILES | combination Emax [1] | combination Emax [2] | combination Emax [3] | combination Emax [4] | combination Emax [5] | combination Emax [6] | combination Emax [7] | combination Emax [8] | combination Emax [9] | combination Emax [10] | combination Emax (RD (Rhabdomyosarcoma)) | combination Emax [11] | combination Emax [12] | combination Emax [13] | combination Emax [14] | combination Emax [15] | combination Emax [16] | combination Emax [17] | combination Emax [18] | combination Emax [19]
1 | Cc1cc2ncnn2cc1Nc1ncc2c(n1)n(C1CCOCC1)c(=O)n2C [AZD7648] + CN(C)CCCOc1ccc(-c2ccc3ncc4c(c3c2)n(C2CCOCC2)c(=O)n4C)cn1 [AZD0156] (first compound max 10 µM, 7x7, partner max 1 µM) | 0.256 | 0.159 | 0.194 | 0.143 | 0.315 | 0.174 | 0.66 | 0.49 | 0.248 | 0.423 | 0.195 | 0.237 | 0.417 | 0.282 | 0.192 | 0.597 | 0.207 | 0.331 | 0.358 | 0.467
2 | COc1cccc(OCCCN)c1-c1cc(Nc2cnc(C#N)cn2)n[nH]1 [Prexasertib] + C=CCn1c(=O)c2cnc(Nc3ccc(N4CCN(C)CC4)cc3)nc2n1-c1cccc(C(C)(C)O)n1 [AZD1775] (first compound max 1 µM, partner max 1 µM) | 0.821 | 0.472 | 0.514 | 1 | 0.758 | 0.978 | 1 | 1 | 1 | 0.896 | 0.75 | 0.788 | 1 | 0.917 | 0.757 | 0.801 | 0.601 | 1 | 0.269 | 0.819
3 | Cn1cnc2c(F)c(Nc3ccc(Br)cc3Cl)c(C(=O)NOCCO)cc21 [Selumetinib] + CC(C)n1c(=O)n(C)c2cnc3cc(F)c(-c4ccc(OCCCN5CCCCC5)nc4)cc3c21 [AZD1390] (first compound max 10 µM, 7x7, partner max 0.3 µM) | 0.125 | 0.15 | 0.278 | 0.25 | 0.516 | 0.328 | 0.299 | 0.295 | 0.26 | 0.552 | 0.24 | 0.0857 | 0.66 | 0.0608 | 0.434 | 0.15 | 0.252 | 0.978 | 0.152 | 0.949
4 | CC1(C)CCC(CN2CCN(c3ccc(C(=O)NS(=O)(=O)c4ccc(NCC5CCOCC5)c([N+](=O)[O-])c4)c(Oc4cnc5[nH]ccc5c4)c3)CC2)=C(c2ccc(Cl)cc2)C1 [Venetoclax] + Cc1cc2ncnn2cc1Nc1ncc2c(n1)n(C1CCOCC1)c(=O)n2C [AZD7648] (first compound max 1 µM, 7x7, partner max 10 µM) | 0.303 | 0.13 | 0.29 | 0.675 | 0.374 | 1 | 0.687 | 1 | 0.438 | 0.387 | 0.183 | 0.16 | 0.956 | 0.289 | 0.131 | 0.363 | 0.163 | 0.396 | 0.383 | 0.489
5 | CN(CCO)CC[C@H](CSc1ccccc1)Nc1ccc(S(=O)(=O)NC(=O)c2ccc(N3CCC([C@@H](O)c4ccccc4-c4ccc(Cl)cc4)CC3)cc2)cc1S(=O)(=O)C(F)(F)F [AZD4320] + C[C@@H](Nc1cc(F)cc(F)c1)c1cc(C(=O)N(C)C)cc2c(=O)cc(N3CCOCC3)oc12 [AZD8186] (first compound max 1 µM, 7x7, partner max 3 µM) | 0.728 | 0.178 | 0.273 | 0.357 | 0.415 | 1 | 0.99 | 1 | 0.968 | 0.365 | 0.887 | 0.308 | 1 | 0.329 | 0.336 | 0.344 | 0.149 | 0.958 | 0.342 | 0.705
6 | C[C@@H](c1ccc2nccn2c1)n1nnc2ncc(-c3cnn(C)c3)nc21 [Savolitinib] + CC1(C)CCC(CN2CCN(c3ccc(C(=O)NS(=O)(=O)c4ccc(NCC5CCOCC5)c([N+](=O)[O-])c4)c(Oc4cnc5[nH]ccc5c4)c3)CC2)=C(c2ccc(Cl)cc2)C1 [Venetoclax] (first compound max 1 µM, 7x7, partner max 1 µM) | 0.204 | 0.131 | 0.127 | 0.15 | 0.101 | 1 | 0.142 | 0.97 | 0.106 | 0.153 | 0.143 | 0.115 | 0.895 | 0.182 | 0.877 | 0.0972 | 0.117 | 0.155 | 0.268 | 0.245
